Data published in PubChem BioAssay AID651980 (The Scripps Research Institute Molecular Screening Center, 2013).
The source made the active and inactive calls. The rule behind the calls is not given here.

What was measured:
Experiment in all cases: PubChem AID 651980
PNPLA6 = settings: HEK293T in situ, ABPP-SILAC LC-MS/MS, NHU5 probe, at 5 µM, active compounds read low
PLA2G4A = settings: HEK293T in situ, ABPP-SILAC LC-MS/MS, NHU5 probe, at 5 µM, active compounds read low
[1] = biological target: Fatty acid synthase (Homo sapiens) (UniProt P49327); settings: HEK293T in situ, ABPP-SILAC LC-MS/MS, NHU5 probe; FASN; at 5 µM; active compounds read low
Chain of Fatty acid synthase (Homo sapiens) (P49327 whole entry, looked up): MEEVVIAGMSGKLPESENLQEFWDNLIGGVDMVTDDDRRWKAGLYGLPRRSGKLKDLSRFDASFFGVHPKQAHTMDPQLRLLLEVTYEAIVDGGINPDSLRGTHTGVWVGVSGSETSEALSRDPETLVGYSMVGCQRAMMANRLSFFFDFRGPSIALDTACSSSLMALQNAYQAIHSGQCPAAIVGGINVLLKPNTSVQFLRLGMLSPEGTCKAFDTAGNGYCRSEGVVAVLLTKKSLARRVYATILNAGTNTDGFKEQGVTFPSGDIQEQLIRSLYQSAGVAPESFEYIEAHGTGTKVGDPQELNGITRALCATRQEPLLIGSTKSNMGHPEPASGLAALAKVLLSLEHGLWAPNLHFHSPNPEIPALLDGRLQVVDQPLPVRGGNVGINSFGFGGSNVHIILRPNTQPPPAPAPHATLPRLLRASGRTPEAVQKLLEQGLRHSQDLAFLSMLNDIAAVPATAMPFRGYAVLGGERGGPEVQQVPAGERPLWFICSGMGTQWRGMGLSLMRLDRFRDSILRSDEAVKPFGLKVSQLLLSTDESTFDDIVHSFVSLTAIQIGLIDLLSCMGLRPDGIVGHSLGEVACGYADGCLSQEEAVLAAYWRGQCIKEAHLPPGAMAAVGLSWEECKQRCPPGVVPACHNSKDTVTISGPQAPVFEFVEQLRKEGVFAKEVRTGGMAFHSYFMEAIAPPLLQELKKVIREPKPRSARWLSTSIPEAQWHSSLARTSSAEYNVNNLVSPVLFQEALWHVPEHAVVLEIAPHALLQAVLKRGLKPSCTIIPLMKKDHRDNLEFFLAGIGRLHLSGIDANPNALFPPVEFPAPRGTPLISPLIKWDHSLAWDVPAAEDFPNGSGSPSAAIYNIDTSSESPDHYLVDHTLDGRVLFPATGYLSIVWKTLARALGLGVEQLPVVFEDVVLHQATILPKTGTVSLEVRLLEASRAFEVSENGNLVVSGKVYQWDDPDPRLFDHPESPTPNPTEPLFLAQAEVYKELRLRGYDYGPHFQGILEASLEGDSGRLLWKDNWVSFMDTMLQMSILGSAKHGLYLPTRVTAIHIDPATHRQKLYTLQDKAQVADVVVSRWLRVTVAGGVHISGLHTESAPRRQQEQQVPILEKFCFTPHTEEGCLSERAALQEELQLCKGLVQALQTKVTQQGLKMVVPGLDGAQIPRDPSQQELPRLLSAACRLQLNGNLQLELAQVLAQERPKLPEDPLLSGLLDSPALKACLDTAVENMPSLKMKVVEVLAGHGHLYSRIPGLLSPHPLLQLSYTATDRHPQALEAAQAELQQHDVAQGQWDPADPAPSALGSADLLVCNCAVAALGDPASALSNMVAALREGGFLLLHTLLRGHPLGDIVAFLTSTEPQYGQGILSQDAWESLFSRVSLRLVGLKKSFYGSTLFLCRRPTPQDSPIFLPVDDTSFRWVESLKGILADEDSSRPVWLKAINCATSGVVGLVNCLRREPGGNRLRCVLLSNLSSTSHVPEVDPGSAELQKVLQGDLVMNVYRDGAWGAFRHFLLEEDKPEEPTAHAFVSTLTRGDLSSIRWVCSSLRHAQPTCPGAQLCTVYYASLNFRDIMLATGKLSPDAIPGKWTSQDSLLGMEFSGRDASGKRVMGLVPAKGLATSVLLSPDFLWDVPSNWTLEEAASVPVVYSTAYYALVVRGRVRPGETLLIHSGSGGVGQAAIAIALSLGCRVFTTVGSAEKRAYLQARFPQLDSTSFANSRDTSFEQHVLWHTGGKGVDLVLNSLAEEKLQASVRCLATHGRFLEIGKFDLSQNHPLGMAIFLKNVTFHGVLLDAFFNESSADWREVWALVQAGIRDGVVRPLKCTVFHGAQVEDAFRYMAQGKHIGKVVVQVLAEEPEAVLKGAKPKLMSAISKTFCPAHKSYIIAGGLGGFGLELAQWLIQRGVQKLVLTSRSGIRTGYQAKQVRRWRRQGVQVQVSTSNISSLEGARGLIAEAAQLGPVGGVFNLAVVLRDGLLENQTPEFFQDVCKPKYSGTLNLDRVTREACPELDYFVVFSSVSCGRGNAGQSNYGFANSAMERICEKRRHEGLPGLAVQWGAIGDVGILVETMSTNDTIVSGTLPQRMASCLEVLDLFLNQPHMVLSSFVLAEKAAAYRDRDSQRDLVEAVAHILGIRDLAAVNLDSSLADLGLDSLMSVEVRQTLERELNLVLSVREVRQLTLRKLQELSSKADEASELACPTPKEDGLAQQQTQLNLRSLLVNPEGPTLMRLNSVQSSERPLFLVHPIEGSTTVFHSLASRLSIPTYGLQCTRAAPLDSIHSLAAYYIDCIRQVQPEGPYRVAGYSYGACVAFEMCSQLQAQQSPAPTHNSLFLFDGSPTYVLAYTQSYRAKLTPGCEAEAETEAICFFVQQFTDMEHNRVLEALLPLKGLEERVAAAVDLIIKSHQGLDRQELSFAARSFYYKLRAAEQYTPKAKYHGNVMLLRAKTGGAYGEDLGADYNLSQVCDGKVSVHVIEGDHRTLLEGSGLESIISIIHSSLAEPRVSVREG

ABHD6 = settings: HEK293T in situ, ABPP-SILAC LC-MS/MS, NHU5 probe, at 5 µM, active compounds read low
ABHD10 = settings: HEK293T in situ, ABPP-SILAC LC-MS/MS, NHU5 probe, at 5 µM, active compounds read low
LYPLAL1 = settings: HEK293T in situ, ABPP-SILAC LC-MS/MS, NHU5 probe, at 5 µM, active compounds read low
[2] = biological target: Acyl-protein thioesterase 1 (Homo sapiens) (UniProt O75608); settings: HEK293T in situ, ABPP-SILAC LC-MS/MS, NHU5 probe; LYPLA1; at 5 µM; active compounds read low
Chain of Acyl-protein thioesterase 1 (Homo sapiens) (O75608 whole entry, looked up): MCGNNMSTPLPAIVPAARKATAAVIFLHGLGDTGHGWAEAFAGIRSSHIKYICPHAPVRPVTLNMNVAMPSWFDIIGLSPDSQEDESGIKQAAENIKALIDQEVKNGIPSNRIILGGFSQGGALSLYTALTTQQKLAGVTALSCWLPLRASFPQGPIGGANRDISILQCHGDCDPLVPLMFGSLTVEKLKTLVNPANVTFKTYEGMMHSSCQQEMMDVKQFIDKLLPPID

MGLL = settings: HEK293T in situ, ABPP-SILAC LC-MS/MS, NHU5 probe, at 5 µM, active compounds read low
[3] = biological target: Dipeptidyl peptidase 9 (Homo sapiens) (UniProt Q86TI2); settings: HEK293T in situ, ABPP-SILAC LC-MS/MS, NHU5 probe; DPP9; at 5 µM; active compounds read low
Chain of Dipeptidyl peptidase 9 (Homo sapiens) (Q86TI2 whole entry, looked up): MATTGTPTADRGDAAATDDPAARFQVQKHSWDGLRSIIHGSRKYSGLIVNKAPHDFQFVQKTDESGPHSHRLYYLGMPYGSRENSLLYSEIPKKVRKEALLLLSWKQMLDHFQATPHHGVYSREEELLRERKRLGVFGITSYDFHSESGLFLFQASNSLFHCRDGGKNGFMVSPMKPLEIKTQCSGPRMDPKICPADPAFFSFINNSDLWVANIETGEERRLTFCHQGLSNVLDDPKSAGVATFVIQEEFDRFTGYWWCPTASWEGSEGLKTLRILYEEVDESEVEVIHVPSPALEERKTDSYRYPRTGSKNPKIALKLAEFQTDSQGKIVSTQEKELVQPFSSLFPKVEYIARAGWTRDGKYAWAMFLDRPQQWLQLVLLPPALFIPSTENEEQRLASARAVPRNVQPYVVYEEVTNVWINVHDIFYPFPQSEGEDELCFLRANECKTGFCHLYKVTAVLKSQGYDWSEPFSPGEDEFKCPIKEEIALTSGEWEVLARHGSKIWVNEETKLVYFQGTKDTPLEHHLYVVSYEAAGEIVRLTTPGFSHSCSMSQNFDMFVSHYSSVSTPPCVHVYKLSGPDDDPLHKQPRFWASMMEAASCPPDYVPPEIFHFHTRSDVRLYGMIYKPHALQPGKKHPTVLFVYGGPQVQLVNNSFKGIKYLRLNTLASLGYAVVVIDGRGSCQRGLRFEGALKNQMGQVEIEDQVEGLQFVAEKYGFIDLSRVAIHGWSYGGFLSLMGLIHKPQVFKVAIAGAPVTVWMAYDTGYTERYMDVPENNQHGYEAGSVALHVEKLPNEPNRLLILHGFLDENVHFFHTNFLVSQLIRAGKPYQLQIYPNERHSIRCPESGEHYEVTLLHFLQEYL

[4] = biological target: Acyl-protein thioesterase 2 (Homo sapiens) (UniProt O95372); settings: HEK293T in situ, ABPP-SILAC LC-MS/MS, NHU5 probe; LYPLA2; at 5 µM; active compounds read low
Chain of Acyl-protein thioesterase 2 (Homo sapiens) (O95372 whole entry, looked up): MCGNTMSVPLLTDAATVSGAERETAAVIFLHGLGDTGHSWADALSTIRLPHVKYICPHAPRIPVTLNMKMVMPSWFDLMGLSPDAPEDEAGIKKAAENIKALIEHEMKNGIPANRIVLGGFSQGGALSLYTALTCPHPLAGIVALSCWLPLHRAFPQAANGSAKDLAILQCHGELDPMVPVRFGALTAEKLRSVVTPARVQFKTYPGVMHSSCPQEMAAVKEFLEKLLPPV

ABHD12 = settings: HEK293T in situ, ABPP-SILAC LC-MS/MS, NHU5 probe, at 5 µM, active compounds read low
PREP = settings: HEK293T in situ, ABPP-SILAC LC-MS/MS, NHU5 probe, at 5 µM, active compounds read low
[5] = biological target: Protein phosphatase methylesterase 1 (Homo sapiens) (UniProt Q9Y570); settings: HEK293T in situ, ABPP-SILAC LC-MS/MS, NHU5 probe; PPME1; at 5 µM; active compounds read low
Chain of Protein phosphatase methylesterase 1 (Homo sapiens) (Q9Y570 whole entry, looked up): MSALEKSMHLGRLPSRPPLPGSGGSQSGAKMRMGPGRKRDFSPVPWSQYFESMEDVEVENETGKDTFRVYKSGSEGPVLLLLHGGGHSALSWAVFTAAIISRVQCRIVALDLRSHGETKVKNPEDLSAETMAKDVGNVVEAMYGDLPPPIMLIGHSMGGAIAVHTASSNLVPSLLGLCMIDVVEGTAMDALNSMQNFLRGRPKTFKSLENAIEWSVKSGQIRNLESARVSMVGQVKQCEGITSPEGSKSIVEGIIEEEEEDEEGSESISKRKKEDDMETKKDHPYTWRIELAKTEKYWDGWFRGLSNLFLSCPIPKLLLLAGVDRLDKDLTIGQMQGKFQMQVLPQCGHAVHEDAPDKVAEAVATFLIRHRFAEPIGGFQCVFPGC

TPP2 = settings: HEK293T in situ, ABPP-SILAC LC-MS/MS, NHU5 probe, at 5 µM, active compounds read low
AADACL1 = settings: HEK293T in situ, ABPP-SILAC LC-MS/MS, NHU5 probe, at 5 µM, active compounds read low
CTSA = settings: HEK293T in situ, ABPP-SILAC LC-MS/MS, NHU5 probe, at 5 µM, active compounds read low
[6] = biological target: Acylamino-acid-releasing enzyme (Homo sapiens) (UniProt P13798); settings: HEK293T in situ, ABPP-SILAC LC-MS/MS, NHU5 probe; APEH; at 5 µM; active compounds read low
Chain of Acylamino-acid-releasing enzyme (Homo sapiens) (P13798 whole entry, looked up): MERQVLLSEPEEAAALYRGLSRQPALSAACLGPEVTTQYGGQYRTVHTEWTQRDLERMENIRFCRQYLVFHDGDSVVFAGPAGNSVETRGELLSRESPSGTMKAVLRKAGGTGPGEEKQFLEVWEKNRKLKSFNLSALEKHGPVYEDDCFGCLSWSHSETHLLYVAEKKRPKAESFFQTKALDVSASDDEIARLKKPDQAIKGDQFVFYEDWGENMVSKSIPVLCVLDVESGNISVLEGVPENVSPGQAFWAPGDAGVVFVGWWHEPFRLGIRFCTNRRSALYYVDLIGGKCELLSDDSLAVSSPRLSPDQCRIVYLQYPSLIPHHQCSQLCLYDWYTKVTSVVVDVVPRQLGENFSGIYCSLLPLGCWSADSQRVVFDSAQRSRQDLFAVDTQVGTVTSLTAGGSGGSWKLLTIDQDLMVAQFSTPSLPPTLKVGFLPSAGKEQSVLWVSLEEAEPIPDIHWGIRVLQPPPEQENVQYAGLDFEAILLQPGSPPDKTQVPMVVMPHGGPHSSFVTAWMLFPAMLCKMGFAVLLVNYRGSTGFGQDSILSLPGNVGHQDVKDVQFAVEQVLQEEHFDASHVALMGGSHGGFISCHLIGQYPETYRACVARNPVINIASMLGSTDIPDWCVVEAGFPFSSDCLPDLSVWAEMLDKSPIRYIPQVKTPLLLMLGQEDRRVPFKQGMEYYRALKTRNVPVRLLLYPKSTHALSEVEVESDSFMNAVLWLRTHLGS

ESD = settings: HEK293T in situ, ABPP-SILAC LC-MS/MS, NHU5 probe, at 5 µM, active compounds read low

COc1ccc(N2CCN(C(=O)c3cc4c(s3)-c3ccccc3S(=O)(=O)C4)CC2)cc1
remaining activity ratio (inhibitor/DMSO) (PNPLA6): 1.27 (inactive) | remaining activity ratio (inhibitor/DMSO) (PLA2G4A): 1.44 (inactive) | remaining activity ratio (inhibitor/DMSO) [1]: 1.15 (inactive) | remaining activity ratio (inhibitor/DMSO) (ABHD6): 1.37 (inactive) | remaining activity ratio (inhibitor/DMSO) (ABHD10): 1.21 (inactive) | remaining activity ratio (inhibitor/DMSO) (LYPLAL1): 1.23 (inactive) | remaining activity ratio (inhibitor/DMSO) [2]: 1.12 (inactive) | remaining activity ratio (inhibitor/DMSO) (MGLL): 0.94 (inactive) | remaining activity ratio (inhibitor/DMSO) [3]: 1.17 (inactive) | remaining activity ratio (inhibitor/DMSO) [4]: 0.25 | remaining activity ratio (inhibitor/DMSO) (ABHD12): 1.24 (inactive) | remaining activity ratio (inhibitor/DMSO) (PREP): 1.05 (inactive) | remaining activity ratio (inhibitor/DMSO) [5]: 1.13 (inactive) | remaining activity ratio (inhibitor/DMSO) (TPP2): 1.1 (inactive) | remaining activity ratio (inhibitor/DMSO) (AADACL1): 1.14 (inactive) | remaining activity ratio (inhibitor/DMSO) (CTSA): 1.29 (inactive) | remaining activity ratio (inhibitor/DMSO) [6]: 1.23 (inactive) | remaining activity ratio (inhibitor/DMSO) (ESD): 1.17 (inactive)
